# Patent US20090233957A1, “(-)-BELOXEPIN AND METHODS FOR ITS SYNTHESIS AND USE” (priority 2008, published 2009)
# Key:
# human recombinant CYP2D6 = target: T1, human recombinant CYP2D6 (Homo sapiens, UniProt P10635); assay: CYP2D6 inhibition, MAMC substrate; format: in vitro ADME
# T1 construct: purchased BD Bioscience
# Protocol: Protocol. […] The source of the enzyme was microsomes containing human recombinant CYP2D6 obtained from BD Bioscience. Conversion of MAMC to 7-hydroxy-4-(aminomethyl)coumarin was measured using a PerkinElmer Fusion with a 390 nm excitation filter and a 460 nm emission filter.
# [1] = tested on: patients hospitalized for depression; conditions: phase IIA; cited from earlier work
# [2] = target: T2, cloned human 5HT2C receptor (Homo sapiens, UniProt P28335); assay: 5HT2C receptor binding assay, [3H]mesulergine; conditions: CHO membranes
# T2 construct: expressed in transfected cells; host or cells: CHO cells
# T2 sequence (P28335 33-458): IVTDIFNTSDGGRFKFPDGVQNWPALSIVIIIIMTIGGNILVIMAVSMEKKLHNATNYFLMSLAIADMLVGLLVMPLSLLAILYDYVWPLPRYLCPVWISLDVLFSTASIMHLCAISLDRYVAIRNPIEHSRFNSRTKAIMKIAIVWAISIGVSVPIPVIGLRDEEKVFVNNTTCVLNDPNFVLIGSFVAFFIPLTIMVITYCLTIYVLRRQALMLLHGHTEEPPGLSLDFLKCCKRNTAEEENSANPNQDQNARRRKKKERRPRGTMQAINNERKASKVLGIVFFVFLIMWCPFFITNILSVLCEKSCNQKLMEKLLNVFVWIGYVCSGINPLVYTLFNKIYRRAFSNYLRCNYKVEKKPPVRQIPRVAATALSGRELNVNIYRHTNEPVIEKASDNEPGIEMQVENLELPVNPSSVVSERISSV
# Protocol: For the 5HT2C receptor binding assay, [^3H]mesulergine (1.0 nM) was incubated for 60 min at 37° C. with membranes prepared from Chinese hamster ovary cells heterologously expressing the cloned human 5-HT2C receptor according to the method of Stam et al., 1994, Eur. J. Pharmacol. 269:339-348. Various concentrations of test compound were added and bound radioactivity was determined by scintillation counting. Non-specific binding was determined in the presence of 10 μM RS102221. The Ki value for the test compound was determined using standard methods.
# [3] = target: T3, cloned human 5HT2B receptor (Homo sapiens, UniProt P41595); assay: 5HT2B functional assay, intracellular Ca2+ in CHO cells; format: cell-based
# T3 construct: expressed in transfected cells; host or cells: CHO cells
# Protocol: (§1) Agonist effects at the 5HT2B receptor were assessed by incubation at 22° C. of a series of concentrations of test compound with intact CHO cells heterologously expressing the cloned human 5HT2B receptor and measuring intracellular [Ca^2+] by fluorimetry according to the method of Porter et al., 1991, Brit. J. Pharmacol. 128:13-20. Antagonist effects were assessed by the ability of a series of concentrations of test compound to block the increase in intracellular [Ca^2+] that occurred in the presence of 0.3 nM serotonin under the same conditions. EC50 and IC50 values were determined using standard methods.
# [4] = tested on: animal models of depression; conditions: preclinical; cited from earlier work
# [5] = in vivo; cited from earlier work
# human volunteers = conditions: 25-400 mg, cited from earlier work
# [6] = target: T4, cloned human NE transporter (hNET) (Homo sapiens, UniProt P23975); assay: NE transporter binding assay, [3H]nisoxetine; conditions: membranes of CHO cells expressing hNET; read-out: NET Ki
# T4 construct: expressed in transfected cells; host or cells: CHO cells
# Protocol: Protocols. For the NE transporter binding assay, [^3H]nisoxetine (1.0 nM) was incubated with various concentrations of test compounds for 2 hours at 4° C. with membranes prepared from Chinese hamster ovary cells (CHO) cells heterologously expressing the cloned human NE transporter (hNET). Bound radioactivity was determined by scintillation spectroscopy.
# [7] = target: T5, cloned human 5HT2A receptor (Homo sapiens, UniProt P28223); assay: 5HT2A functional assay, intracellular Ca2+ in HEK-293 cells; format: cell-based
# T5 construct: expressed in transfected cells; host or cells: HEK-293 cells
# Protocol: as §1, with “5HT2A” for “5HT2B”, “HEK-293” for “CHO”, “Jerman” for “Porter”, “2001, Eur.” for “1991, Brit.”, “414:23-30).” for “128:13-20.”, “3.0” for “0.3”
# [8] = tested on: noradrenaline reuptake in synaptosomes from rat and primate brain; conditions: published reports; cited from earlier work
# [9] = tested on: noradrenergic, histaminergic and cholinergic receptors; conditions: published report; cited from earlier work
# [10] = target: T3, cloned human 5HT2B receptor; assay: 5HT2B receptor binding assay, [125I]DOI; conditions: CHO membranes
# Protocol: For the 5HT2B receptor binding assay, [^125I](±)[…] (DOI) (0.2 nM) was incubated for 15 min at 37° C. with membranes prepared from Chinese hamster ovary cells heterologously expressing the cloned human 5HT2B receptor according to the method of Choi et al., 1994, FEBS Lett 352:393-399. Various concentrations of test compound were added and bound radioactivity was determined by scintillation counting. Non-specific binding was determined in the presence of 1.0 μM unlabeled DOI. The Ki value for the test compound was determined using standard methods.
# [11] = single doses of 10 to 500 mg; cited from earlier work
# major depression = conditions: human, in vivo; cited from earlier work
# 5HT2C receptor = target: T6, 5HT2C receptor (Homo sapiens, UniProt P28335); conditions: published report; cited from earlier work
# T6 sequence (P28335 33-458): T2 sequence (P28335 33-458)
# [12] = target: T2, cloned human 5HT2C receptor; assay: 5HT2C functional assay, intracellular Ca2+ in CHO cells; format: cell-based
# Protocol: as §1, with “5HT2C” for “5HT2B”, “Jerman” for “Porter”, “2001, Eur.” for “1991, Brit.”, “414:23-30.” for “128:13-20.”, “3.0” for “0.3”
# [13] = cited from earlier work
# [14] = target: T5, cloned human 5HT2A receptor; assay: 5HT2A receptor binding assay, [3H]ketanserin; conditions: HEK-293 membranes
# Protocol: For the 5HT2A receptor binding assay, [^3H]ketanserin (0.5 nM) was incubated for 60 min at 22° C. with membranes prepared from HEK-293 cells heterologously expressing the cloned human 5-HT2A receptor according to the method of Bonhaus et al., 1995, Brit. J. Pharmacol. 115:622-628. Various concentrations of test compound were added and bound radioactivity was determined by scintillation counting. Non-specific binding was determined in the presence of 1.0 μM unlabeled ketanserin. The Ki value for the test compound was determined using standard methods.
# [15] = antagonist mode, vs 3.0 nM serotonin
# T5 sequence (P28223 whole entry): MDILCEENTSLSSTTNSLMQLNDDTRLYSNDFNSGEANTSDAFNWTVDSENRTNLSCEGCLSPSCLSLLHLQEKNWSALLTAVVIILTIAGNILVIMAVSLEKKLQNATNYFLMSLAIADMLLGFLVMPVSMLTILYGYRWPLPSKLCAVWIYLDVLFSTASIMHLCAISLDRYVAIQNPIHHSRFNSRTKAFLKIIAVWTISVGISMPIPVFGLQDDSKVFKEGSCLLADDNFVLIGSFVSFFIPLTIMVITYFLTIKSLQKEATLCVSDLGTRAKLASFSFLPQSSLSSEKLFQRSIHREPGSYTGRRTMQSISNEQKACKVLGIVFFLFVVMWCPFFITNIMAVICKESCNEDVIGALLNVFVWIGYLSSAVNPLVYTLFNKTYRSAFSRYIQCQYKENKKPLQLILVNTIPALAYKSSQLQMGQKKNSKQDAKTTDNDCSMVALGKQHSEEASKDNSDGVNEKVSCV
# T3 sequence (P41595 whole entry): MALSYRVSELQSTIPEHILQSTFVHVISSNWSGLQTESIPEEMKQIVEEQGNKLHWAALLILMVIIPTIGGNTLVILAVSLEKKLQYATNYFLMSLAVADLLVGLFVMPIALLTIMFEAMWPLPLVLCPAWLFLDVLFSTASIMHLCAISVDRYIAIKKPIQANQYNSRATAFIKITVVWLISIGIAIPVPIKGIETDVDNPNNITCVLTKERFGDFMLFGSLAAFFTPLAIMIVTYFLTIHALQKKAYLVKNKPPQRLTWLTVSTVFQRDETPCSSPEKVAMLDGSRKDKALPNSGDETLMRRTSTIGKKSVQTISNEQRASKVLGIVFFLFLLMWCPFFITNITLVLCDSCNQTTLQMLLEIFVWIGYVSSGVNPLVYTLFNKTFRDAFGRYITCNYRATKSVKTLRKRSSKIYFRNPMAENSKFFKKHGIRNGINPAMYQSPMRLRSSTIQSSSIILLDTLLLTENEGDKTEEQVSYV
# T1 sequence (P10635 whole entry): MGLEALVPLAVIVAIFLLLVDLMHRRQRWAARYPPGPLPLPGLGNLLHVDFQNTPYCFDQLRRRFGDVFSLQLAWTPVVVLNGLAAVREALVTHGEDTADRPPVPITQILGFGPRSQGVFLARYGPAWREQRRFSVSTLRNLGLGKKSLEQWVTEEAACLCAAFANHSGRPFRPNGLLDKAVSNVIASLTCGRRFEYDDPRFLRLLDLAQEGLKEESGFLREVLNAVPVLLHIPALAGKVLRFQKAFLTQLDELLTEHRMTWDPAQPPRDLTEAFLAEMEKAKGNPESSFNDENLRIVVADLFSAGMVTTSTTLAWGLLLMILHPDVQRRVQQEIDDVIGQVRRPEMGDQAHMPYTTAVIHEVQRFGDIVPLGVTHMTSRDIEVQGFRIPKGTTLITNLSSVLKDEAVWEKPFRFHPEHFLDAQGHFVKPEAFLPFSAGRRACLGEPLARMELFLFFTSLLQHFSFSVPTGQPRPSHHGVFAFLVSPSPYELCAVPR
# T4 sequence (P23975 whole entry): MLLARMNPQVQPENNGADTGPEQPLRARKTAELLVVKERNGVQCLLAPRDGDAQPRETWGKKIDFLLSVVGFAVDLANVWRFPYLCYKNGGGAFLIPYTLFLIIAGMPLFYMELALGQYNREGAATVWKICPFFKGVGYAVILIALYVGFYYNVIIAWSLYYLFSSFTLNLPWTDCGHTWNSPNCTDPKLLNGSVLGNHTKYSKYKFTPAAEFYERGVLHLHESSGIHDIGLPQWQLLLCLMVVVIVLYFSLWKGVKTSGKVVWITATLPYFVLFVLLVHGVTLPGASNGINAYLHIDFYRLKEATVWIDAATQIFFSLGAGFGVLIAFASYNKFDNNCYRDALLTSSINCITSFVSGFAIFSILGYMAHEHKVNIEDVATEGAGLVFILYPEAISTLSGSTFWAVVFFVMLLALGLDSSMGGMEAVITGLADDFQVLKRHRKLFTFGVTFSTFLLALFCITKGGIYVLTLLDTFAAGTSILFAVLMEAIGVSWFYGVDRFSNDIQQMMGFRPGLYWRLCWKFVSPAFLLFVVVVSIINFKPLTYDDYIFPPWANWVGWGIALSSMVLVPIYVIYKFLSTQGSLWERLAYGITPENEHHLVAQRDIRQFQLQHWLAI
compound,measurement,setting,value
"Cc1cccc2c1Oc1ccccc1C1(O)CCN(C)CC21 (racemic) [(±)-beloxepin, cis-1,2,3,4,4a,13b-hexahydro-2,10-dimethyldiben-[2,3:6,7]oxepino[4,5c]pyridine-4a-ol]]",IC50,human recombinant CYP2D6,536 nM
same,fraction of patients with a moderate to good response (HAMD score reduction),[1],⅔
same,Ki,[2],830 nM
same,5HT2B functional activity type,[3],antagonist
same,IC50,"[3]; antagonist mode, vs 0.3 nM serotonin",> 10000 nM
same,antidepressant properties,[4],"offsetting acquired immobility behavior, reserpine-induced hypothermia, and conditioned avoidance behavior"
same,side effects,[4],"did not cause sedation, motor impairment or other untoward side effects"
same,logBB,[5],0.82
same,effect on REM sleep,human volunteers; acutely and sub-chronically,dose-dependently prolonged REM latency
same,side effects,human volunteers,No sedation or other side effects were observed
same,Ki,[6],700 nM
same,5HT2A functional activity type,[7],antagonist
same,IC50,[7]; [15],5200 nM
same,less affinity for other monoamine carriers (serotonin and dopamine transporters) than for noradrenaline reuptake,[8],greater than 100 fold
same,"affinity for noradrenergic, histaminergic and cholinergic receptors",[9],no or very weak affinity
same,Ki,[10],1000 nM
same,tmax,[11],one to four
same,efficacy in major depression,major depression,insufficient efficacy
same,affinity for the 5HT2C receptor,5HT2C receptor,modest affinity
same,5HT2C functional activity type,[12],antagonist
same,IC50,[12]; [15],> 10000 nM
same,"tmax, steady state","[13]; doses of 50 to 800 mg, healthy subjects",1.17 h
same,adverse effects,"[13]; healthy volunteers, up to 800 mg/day",No important adverse effects were observed
same,Ki,[14],440 nM
